What was measured:
hair-matrix cells = assay: Proliferation effect of cultured hair-matrix cells; type: cell-based, Mouse; conditions: cultured 6 days; for Relative value of the number of cells: control group = 100%
Procedure: Mouse hair tissues were collected and hair-matrix cells were cultured by the method disclosed by Tanigaki, et al., using serum free media (Tanigaki, et al., (1990), Arch. Dermatol. Res. 282: 402-407).
On the first day after the start of culturing hair-matrix cells, the culture media were changed to those containing the above-mentioned chromene compounds.
After culturing the hair-matrix cells for 6 days, they were separated from the culture dishes and the number of cells was counted. The effect of each chromene compound is shown by a relative ratio with the number of cells in the control group (the group cultured in a serum-free medium) being defined as 100%.

[1] = reported in Annual Report of Toyama Prefectural Institute for Pharmaceutical Research, 1998; cited from earlier work

Row | SMILES | Proliferation rate (hair-matrix cells; 1 μg/ml in culture medium) [% increase over control] | Relative value of the number of cells (hair-matrix cells; 1 μg/ml in culture medium) [% control] | Proliferation rate (hair-matrix cells; 10 μg/ml in culture medium) [% increase over control] | Relative value of the number of cells (hair-matrix cells; 10 μg/ml in culture medium) [% control] | acute toxicity [1]
1 | COc1cc(C(C)=O)cc2c1OC(C)(C)C=C2 [Acetovanillochromene, 6-acetyl-8-methoxy-2,2-dimethylchromene] | 33 | 133 | 35 | 135 | –
2 | COc1c(C(C)=O)cc2c(c1OC)OC(C)(C)C=C2 [Methylripariochromene A, 6-acetyl-7,8-dimethoxy-2,2-dimethylchromene] | 12 | 112 | 53 | 153 | no toxicity
3 | COc1c(C(C)O)cc2c(c1OC)OC(C)(C)C=C2 (stereo not shown) [Orthochromene A, 6-(1-hydroxyethyl)-7,8-dimethoxy-2,2-dimethylchromene] | 18 | 118 | 44 | 144 | –
